Measurements taken from patent publication US11795615B2 (priority 2015, dated 2023).

Columns and labels:
[1] = gas; cited from earlier work
[2] = 20° C.; cited from earlier work
[3] = Side by side bleaching of Kraft pulp, hand sheet Kappa number, pH and ORP; details: for Kappa No.: unbleached 30
[4] = system: microbial control in water; assay: Microbial control in water at slightly alkaline pH; format: cell-based
From the text: In some embodiments, microbial control in water at slightly alkaline pH was compared between peracetate oxidant, […] bleach, peracetic acid and […] dioxide. Alkaline pH is encountered in a variety of applications where microbial control and sanitization is needed, including pulp and paper processing, cooling towers, water treatment and chill tanks in poultry processing. […].

[5] = Thermal activation in distilled water at pH 8.5 and 50° C.; format: physicochemical; details: pH 8.5, 50° C.
[6] = 1.13 g/L PAA equiv., initial pH 8.2, 30 min

Row | Compound | vapor pressure [1] | solubility limit in water [2] [% wt/vol] | Final ORP [3, 6] [mV vs SHE] | Kappa No. [3, 6] | performance as antimicrobial disinfectant [4] | time of stable peracetic acid and hydrogen peroxide concentrations [5] | ORP ([5]; peracetate value within 40 minutes) | Kappa No. ([3]; 4.0 g/L PAA equiv., initial pH 7.0, 30 min) | Kappa No. ([3]; 4.0 g/L PAA equiv., initial pH 8.9, 30 min) | Kappa unit reduction (bleaching efficiency) ([3]; hand sheet tests, initial Kappa number 30)
1 | chlorine dioxide [ClO2] | greater than 1 atm | 0.8 | 896 | 22 | performed well | – | – | – | – | –
2 | CC(=O)OO [PAA, peracetic acid] | – | – | – | – | lowest performance | about 90 minutes | around 280 mV vs SHE | 31 | 29 | only up to one Kappa unit reduction
